Assays:
BxPC-3 cells [1] = assay: SRB antiproliferative assay, BxPC-3; format: cell-based, human; conditions: for Cell growth percentage: BxPC-3, 10 μM, 72 h exposure; for IC50: Homo sapiens, BxPC-3, 72 h, mean ± SEM, read-out: Half-maximal inhibitory concentration (IC50)
Protocol: (§1) The cytotoxic activity of the nortopsentin derivatives 3b, 3e, 4c, 5b, and 6c on pancreatic cancer cells (BxPC-3, Panc-1, Suit-2, Capan-1, PaTu-T, primary PDAC-3 and resistant Panc-1-GR cells) was determined by the sulforhodamine B (SRB) chemosensitivity assay, as described previously. Cells were plated in 96-well flat-bottom plates at final concentrations ranging from 3000–5000 cells/well in 100 µL of medium. After a 24 h pre-incubation period, cells were treated with the compounds at nine screening concentrations (from 0.1 μM to 40 μM) in triplicate and incubated at 37 °C for 72 h. After the treatment, cells were fixed with 25 µL of cold 50% trichloroacetic acid (TCA) for each well and incubated at 4 °C for 1 h. Afterwards, plates were washed five times with demi-water and air-dried overnight. Then, the plates were stained with 50 µL of 0.4% SRB solution in 1% acetic acid for 15 min. The excess stain was rinsed off by placing the plates under running 1% acetic acid and allowed to dry at room temperature overnight. SRB staining was rinsed with 150 µL tris(hydroxymethyl)aminomethane solution pH = 8.8 (TRIS-base), and the optical density (OD) was read at 492 nm. Each assay was performed in triplicate and assays were repeated at least three times. The comparison of the average optical density of the growth in control wells with that in the sample wells allowed the estimation of the percentage of cell growth, using the following equation: % Cell Growth = (mean ODcompound − mean ODday zero plate)/(mean ODcells − mean ODday zero plate) × 100
(§2) The results obtained were adjusted by the day zero plate (wells containing cells growing for only 24 h) and normalized by the control cells (wells with untreated cells) to obtain the rate of viable cells.

Panc-1 cells = assay: SRB antiproliferative assay, Panc-1; format: cell-based, human; conditions: for Cell growth percentage: Panc-1, 10 μM, 72 h exposure; for IC50: Homo sapiens, Panc-1, 72 h, mean ± SEM, read-out: Half-maximal inhibitory concentration (IC50)
Protocol: as §1, §2

Suit-2 cells = assay: SRB antiproliferative assay, Suit-2; format: cell-based, human; conditions: for IC50: Homo sapiens, Suit-2, 72 h, mean ± SEM, read-out: Half-maximal inhibitory concentration (IC50); for Cell growth percentage: Suit-2, 10 μM, 72 h exposure
Protocol: as §1, §2

Capan-1 cells = assay: SRB antiproliferative assay, Capan-1; format: cell-based, human; conditions: for Cell growth percentage: Capan-1, 10 μM, 72 h exposure; for IC50: Homo sapiens, Capan-1, 72 h, mean ± SEM, read-out: Half-maximal inhibitory concentration (IC50)
Protocol: as §1, §2

PaTu-T cells = assay: SRB antiproliferative assay, PaTu-T; format: cell-based, human; conditions: for Cell growth percentage: 10 μM, 72 h exposure; for IC50: Homo sapiens, 72 h, mean ± SEM, read-out: Half-maximal inhibitory concentration (IC50)
Protocol: as §1, §2

PDAC-3 cells = assay: SRB antiproliferative assay, primary culture PDAC-3; format: cell-based, human; conditions: for IC50: Homo sapiens, PDAC-3, 72 h, mean ± SEM, read-out: Half-maximal inhibitory concentration (IC50); for Cell growth percentage: PDAC-3, 10 μM, 72 h exposure
Protocol: as §1, §2

Panc-1-GR cells = assay: SRB antiproliferative assay, gemcitabine-resistant Panc-1-GR; format: cell-based, human; conditions: for Cell growth percentage: 10 μM, 72 h exposure; for IC50: Homo sapiens, 72 h, mean ± SEM, read-out: Half-maximal inhibitory concentration (IC50)
Protocol: as §1, §2

PDAC cells = assay: SRB antiproliferative assay, whole PDAC panel; format: cell-based; conditions: Homo sapiens; seven PDAC models, 72 h; read-out: IC50 values, range over the PDAC cell panel
Protocol: as §1, with “The comparison of the average optical density of the growth in control wells with that in the sample wells allowed the estimation of the percentage of cell growth, using the following equation: % Cell Growth = (mean ODcompound − mean ODday zero plate)/(mean ODcells − mean ODday zero plate) × 100” left out

BxPC-3 cells [2] = assay: Scratch wound-healing assay, BxPC-3; format: cell-based, human; conditions: BxPC-3, 8 h, 4 × IC50, untreated = 100% wound closure
Protocol: Cell migration was assessed using a wound-healing assay, as described previously. A total of 5 × 10^4 cells/well were seeded in a 96-well plate, to form a confluent monolayer. Scratches were created in confluent cell layers using the sterile scratch tool. The detached cells following scratch induction were removed and new medium was added to the wells. Cells were next treated with compounds 3b and 5b at a concentration of 4 × IC50. Cells growing in a complete medium were maintained at 37 °C with a supply of 5% CO2/95% air atmosphere and 100% relative humidity. The progress of wound closure was observed and documented at various time points (0th, 4th, 8th, 20th, and 24th h) using phase-contrast microscopy. Pictures of the plates were taken using the Universal Grab 6.3 software (DCILabs) from a computer connected to a Leica microscope with a JAI TMC-1327 camera.
The percentage of migration was calculated using the following equation:%Migration = (Width of the wound at T = 0 − Width of the wound at T = X)/(Width of the wound at T = 0) × 100

Cn1cc(-c2nnc(-c3c[nH]c4ncccc34)o2)c2ccccc21 [3a, 3-[5-(1-methyl-1H-indol-3-yl)-1,3,4-oxadiazol-2-yl]-7-azaindole]
melting point: 302 °C

Cn1cc(-c2nnc(-c3cn(C)c4ncccc34)o2)c2cc(F)ccc21 [3c, 3-[5-(5-fluoro-1-methyl-1H-indol-3-yl)-1,3,4-oxadiazol-2-yl]-1-methyl-7-azaindole]
melting point: 268 °C

Cn1cc(-c2nnc(-c3cn(C)c4ncccc34)o2)c2cc(Br)ccc21 [3d, 3-[5-(5-bromo-1-methyl-1H-indol-3-yl)-1,3,4-oxadiazol-2-yl]-1-methyl-7-azaindole]
melting point: 277 °C

Cn1cc(-c2nnc(-c3cn(C)c4ncc(Br)cc34)o2)c2ccccc21 [3e, 5-bromo-1-methyl-3-[5-(1-methyl-1H-indol-3-yl)-1,3,4-oxadiazol-2-yl]-7-azaindole]
Cell growth percentage (BxPC-3 cells [1]): 58.64% | Cell growth percentage (Panc-1 cells): 61.96% | IC50 (Suit-2 cells): 9.4 ± 4.3 µM | Cell growth percentage (Suit-2 cells): 54.94% | Cell growth percentage (Capan-1 cells): 59.84% | Cell growth percentage (PaTu-T cells): 72.33% | IC50 (PDAC-3 cells): 23 ± 0.06 µM | melting point: 244 °C

Cn1cc(-c2nnc(-c3cn(C)c4ncc(Br)cc34)o2)c2cc(Br)ccc21 [3f, 5-bromo-3-[5-(5-bromo-1-methyl-1H-indol-3-yl)-1,3,4-oxadiazol-2-yl]-1-methyl-7-azaindole]
melting point: 275 °C

Cn1cc(-c2nnc(-c3cn(C)c4ncc(Br)cc34)o2)c2cc(F)ccc21 [3g, 5-bromo-3-[5-(5-fluoro-1-methyl-1H-indol-3-yl)-1,3,4-oxadiazol-2-yl]-1-methyl-7-azaindole]
melting point: 310 °C

c1ccc(-c2nnc(-c3c[nH]c4ncccc34)o2)cc1 [4a, 3-(5-phenyl-1,3,4-oxadiazol-2-yl)-7-azaindole]
melting point: 272 °C

Cn1cc(-c2nnc(-c3ccccc3)o2)c2cccnc21 [4b, 1-methyl-3-(5-phenyl-1,3,4-oxadiazol-2-yl)-7-azaindole]
melting point: 201 °C

Brc1cnc2[nH]cc(-c3nnc(-c4ccccc4)o3)c2c1 [4c, 5-bromo-3-(5-phenyl-1,3,4-oxadiazol-2-yl)-7-azaindole]
Cell growth percentage (BxPC-3 cells [1]): 21.13% | IC50 (BxPC-3 cells [1]): 3.3 ± 2.4 µM | IC50 (Panc-1 cells): 13.4 ± 3.2 µM | Cell growth percentage (Panc-1 cells): 74.33% | Cell growth percentage (Panc-1-GR cells): 98.62% | IC50 (Panc-1-GR cells): 10.8 ± 1.4 µM | Cell growth percentage (Suit-2 cells): 60.18% | Cell growth percentage (Capan-1 cells): 75.17% | IC50 (Capan-1 cells): 10.8 ± 0.67 µM | Cell growth percentage (PaTu-T cells): 31.22% | IC50 (PaTu-T cells): 9.7 ± 0.17 µM | Cell growth percentage (PDAC-3 cells): 96.60% | melting point: 275 °C

Cn1cc(-c2nnc(-c3ccccc3)o2)c2cc(Br)cnc21 [4d, 5-bromo-1-methyl-3-(5-phenyl-1,3,4-oxadiazol-2-yl)-7-azaindole]
melting point: 236 °C

Cn1cc(-c2nnc(-c3c[nH]c4ncccc34)s2)c2ccccc21 [5a, 3-[5-(1-methyl-1H-indol-3-yl)-1,3,4-thiadiazol-2-yl]-7-azaindole]
melting point: 246 °C

Cn1cc(-c2nnc(-c3cn(C)c4ncccc34)s2)c2ccccc21 [5b, 1-methyl-3-[5-(1-methyl-1H-indol-3-yl)-1,3,4-thiadiazol-2-yl]-7-azaindole]
Cell growth percentage (BxPC-3 cells [1]): 32.88% | IC50 (BxPC-3 cells [1]): 2.7 ± 0.68 µM | IC50 (Panc-1 cells): 3.5 ± 0.01 µM | Cell growth percentage (Panc-1 cells): 15.68% | Cell growth percentage (Panc-1-GR cells): 40.65% | IC50 (Panc-1-GR cells): 9.8 ± 0.05 µM | IC50 (Suit-2 cells): 1.9 ± 0.27 µM | Cell growth percentage (Suit-2 cells): 19.46% | Cell growth percentage (Capan-1 cells): 30.86% | IC50 (Capan-1 cells): 3.3 ± 0.61 µM | Cell growth percentage (PaTu-T cells): 27.73% | IC50 (PaTu-T cells): 3.4 ± 0.06 µM | IC50 (PDAC-3 cells): 10.6 ± 0.04 µM | Cell growth percentage (PDAC-3 cells): 55.90% | IC50 (PDAC cells): 1.9 to 10.6 µM | percentage of cells migrating (BxPC-3 cells [2]): 66% | melting point: 244 °C

Cn1cc(-c2nnc(-c3cn(C)c4ncccc34)s2)c2cc(Br)ccc21 [5c, 3-[5-(5-bromo-1-methyl-1H-indol-3-yl)-1,3,4-thiadiazol-2-yl]-1-methyl-7-azaindole]
melting point: 292 °C

Cn1cc(-c2nnc(-c3cn(C)c4ncccc34)s2)c2cc(F)ccc21 [5d, 3-[5-(5-fluoro-1-methyl-1H-indol-3-yl)-1,3,4-thiadiazol-2-yl]-1-methyl-7-azaindole]
melting point: 240 °C

COc1ccc2c(c1)c(-c1nnc(-c3cn(C)c4ncccc34)s1)cn2C [5e, 3-[5-(5-methoxy-1-methyl-1H-indol-3-yl)-1,3,4-thiadiazol-2-yl]-1-methyl-7-azaindole]
melting point: 200 °C

Cn1cc(-c2nnc(-c3cn(C)c4ncc(Br)cc34)s2)c2ccccc21 [5f, 5-bromo-1-methyl-3-[5-(1-methyl-1H-indol-3-yl)-1,3,4-thiadiazol-2-yl]-7-azaindole]
melting point: 233 °C

Cn1cc(-c2nnc(-c3cn(C)c4ncc(Br)cc34)s2)c2cc(Br)ccc21 [5g, 5-bromo-3-[5-(5-bromo-1-methyl-1H-indol-3-yl)-1,3,4-thiadiazol-2-yl]-1-methyl-7-azaindole]
melting point: 275 °C

Cn1cc(-c2nnc(-c3cn(C)c4ncc(Br)cc34)s2)c2cc(F)ccc21 [5h, 5-bromo-3-[5-(5-fluoro-1-methyl-1H-indol-3-yl)-1,3,4-thiadiazol-2-yl]-1-methyl-7-azaindole]
melting point: 290 °C

c1ccc(-c2nnc(-c3c[nH]c4ncccc34)s2)cc1 [6a, 3-(5-phenyl-1,3,4-thiadiazol-2-yl)-7-azaindole]
melting point: 249 °C

Cn1cc(-c2nnc(-c3ccccc3)s2)c2cccnc21 [6b, 1-methyl-3-(5-phenyl-1,3,4-thiadiazol-2-yl)-7-azaindole]
melting point: 191 °C

Brc1cnc2[nH]cc(-c3nnc(-c4ccccc4)s3)c2c1 [6c, 5-bromo-3-(5-phenyl-1,3,4-thiadiazol-2-yl)-7-azaindole]
Cell growth percentage (BxPC-3 cells [1]): 54.59% | IC50 (Panc-1 cells): 11.5 ± 1.2 µM | Cell growth percentage (Panc-1 cells): 83.68% | IC50 (Suit-2 cells): 4.1 ± 0.9 µM | Cell growth percentage (Suit-2 cells): 29.80% | Cell growth percentage (Capan-1 cells): 76.76% | IC50 (Capan-1 cells): 12.6 ± 1.3 µM | Cell growth percentage (PaTu-T cells): 56.09% | IC50 (PaTu-T cells): 3.8 ± 1.8 µM | Cell growth percentage (PDAC-3 cells): 87.84% | melting point: 308 °C

Cn1cc(-c2nnc(-c3ccccc3)s2)c2cc(Br)cnc21 [6d, 5-bromo-1-methyl-3-(5-phenyl-1,3,4-thiadiazol-2-yl)-7-azaindole]
melting point: 188 °C
